Reference: patent publication US20260069588A1, “VEPDEGESTRANT FOR USE IN TREATING CANCER” (Arvinas Operation, Inc., priority 2022, published 2026)

Assay: FIH Study Part A dose escalation: adverse events
Excerpt: TEAEs and TRAEs from the clinical study database were coded to system organ class and preferred term using MedDRA version 22.0 and SAEs from the centralized safety database were coded using MedDRA version 25.0. The severity of adverse events was graded according to the NCI CTCAE version 5.0.

O=C1CC[C@H](N2Cc3cc(N4CCN(CC5CCN(c6ccc([C@@H]7c8ccc(O)cc8CC[C@@H]7c7ccccc7)cc6)CC5)CC4)ccc3C2=O)C(=O)N1 [Compound A, (S)-3-(5-(4-((1-(4-((1R,2S)-6-hydroxy-2-phenyl-1,2,3,4-tetrahydronaphthalen-1-yl)phenyl)piperidin-4-yl)methyl)piperazin-1-yl)-1-oxoisoindolin-2-yl)piperidine-2,6-dione]
TRAE Nausea (200 mg (N=8)): 2 n | TRAE Vomiting (200 mg (N=8)): 1 n | TEAE Alanine aminotransferase increased (360 mg (N=15)): 1 n | TEAE Arthralgia (360 mg (N=15)): 2 n | TEAE Aspartate aminotransferase increased (360 mg (N=15)): 0 n | TEAE Back pain (360 mg (N=15)): 2 n | TEAE Constipation (360 mg (N=15)): 5 n | TEAE Decreased appetite (360 mg (N=15)): 4 n | TEAE Diarrhea (360 mg (N=15)): 4 n | TEAE Dizziness (360 mg (N=15)): 2 n | TEAE Fatigue (360 mg (N=15)): 4 n | TEAE Headache (360 mg (N=15)): 4 n | TEAE Hot flush (360 mg (N=15)): 2 n | TEAE Hyperglycemia (360 mg (N=15)): 2 n | TEAE Insomnia (360 mg (N=15)): 1 n | TEAE Nausea (360 mg (N=15)): 4 n | TEAE Pain in extremity (360 mg (N=15)): 1 n | TEAE Vomiting (360 mg (N=15)): 5 n | TRAE Arthralgia (360 mg (N=15)): 0 n | TRAE Constipation (360 mg (N=15)): 3 n | TRAE Decreased appetite (360 mg (N=15)): 2 n | TRAE Fatigue (360 mg (N=15)): 3 n | TRAE Hot flush (360 mg (N=15)): 1 n | TRAE Nausea (360 mg (N=15)): 3 n | TRAE Vomiting (360 mg (N=15)): 2 n | TEAE Alanine aminotransferase increased (500 mg (N=22)): 2 n | TEAE Arthralgia (500 mg (N=22)): 4 n | TEAE Aspartate aminotransferase increased (500 mg (N=22)): 1 n | TEAE Back pain (500 mg (N=22)): 6 n | TEAE Constipation (500 mg (N=22)): 10 n | TEAE Decreased appetite (500 mg (N=22)): 2 n | TEAE Diarrhea (500 mg (N=22)): 3 n | TEAE Dizziness (500 mg (N=22)): 2 n | TEAE Fatigue (500 mg (N=22)): 14 n | TEAE Headache (500 mg (N=22)): 3 n | TEAE Hot flush (500 mg (N=22)): 5 n | TEAE Hyperglycemia (500 mg (N=22)): 5 n | TEAE Insomnia (500 mg (N=22)): 4 n | TEAE Nausea (500 mg (N=22)): 9 n | TEAE Pain in extremity (500 mg (N=22)): 5 n | TEAE Vomiting (500 mg (N=22)): 4 n | TRAE Arthralgia (500 mg (N=22)): 2 n | TRAE Constipation (500 mg (N=22)): 3 n | TRAE Decreased appetite (500 mg (N=22)): 1 n | TRAE Fatigue (500 mg (N=22)): 9 n | TRAE Hot flush (500 mg (N=22)): 5 n | TRAE Nausea (500 mg (N=22)): 7 n | TRAE Vomiting (500 mg (N=22)): 3 n | TEAE Alanine aminotransferase increased (700 mg (N=4)): 0 n | TEAE Arthralgia (700 mg (N=4)): 0 n | TEAE Aspartate aminotransferase increased (700 mg (N=4)): 2 n | TEAE Back pain (700 mg (N=4)): 2 n | TEAE Constipation (700 mg (N=4)): 1 n | TEAE Decreased appetite (700 mg (N=4)): 1 n | TEAE Diarrhea (700 mg (N=4)): 1 n | TEAE Dizziness (700 mg (N=4)): 2 n | TEAE Fatigue (700 mg (N=4)): 2 n | TEAE Headache (700 mg (N=4)): 1 n | TEAE Hot flush (700 mg (N=4)): 0 n | TEAE Hyperglycemia (700 mg (N=4)): 1 n | TEAE Insomnia (700 mg (N=4)): 1 n | TEAE Nausea (700 mg (N=4)): 2 n | TEAE Pain in extremity (700 mg (N=4)): 0 n | TEAE Vomiting (700 mg (N=4)): 1 n | TRAE Arthralgia (700 mg (N=4)): 0 n | TRAE Constipation (700 mg (N=4)): 0 n | TRAE Decreased appetite (700 mg (N=4)): 0 n | TRAE Fatigue (700 mg (N=4)): 2 n | TRAE Hot flush (700 mg (N=4)): 0 n | TRAE Nausea (700 mg (N=4)): 1 n | TRAE Vomiting (700 mg (N=4)): 0 n | Grade 4 or Grade 5 TRAEs (6 Jun 2023): no Grade 4 or Grade 5 TRAEs | Grade 1 TEAEs (6 Jun 2023, N=83): 34.9% | Grade 1 TRAEs (6 Jun 2023, N=83): 41.0% | Grade 2 TEAEs (6 Jun 2023, N=83): 41.0% | Grade 2 TRAEs (6 Jun 2023, N=83): 24.1% | Grade 3 TEAEs (6 Jun 2023, N=83): 16.9% | Grade 3 TRAE electrocardiogram QT prolonged (6 Jun 2023, N=83): 2 patients | Grade 4 TEAEs (6 Jun 2023, N=83): 2.4% | Grade 5 TEAE (6 Jun 2023, N=83): 1.2% | TEAE of Grade ≥3 (6 Jun 2023, N=83): 20.5% | patients with Grade 3 TRAEs (6 Jun 2023, N=83): 7.2% | patients with at least 1 TEAE (6 Jun 2023, N=83): 96.4% | patients with at least 1 TRAE (6 Jun 2023, N=83): 72.3% | SAEs (6 Jun 2023, N=83, 11): 13.3% | deaths (33 of 83 participants): 39.8% | SAE Procedural pain, Grade (Patient 1, 30 mg QD, onset day 30, Not related): 3 | SAE Humerus fracture, Grade (Patient 2, 250 mg BID, onset day 59, Not related): 3 | SAE Embolism venous, Grade (Patient 3, 360 mg QD, onset day 42, Possibly related, SUSAR): 3 | SAE Colitis, Grade (Patient 4, 200 mg QD): 1 | SAE Neutrophil count decreased, Grade (Patient 4, 200 mg QD): 4 | SAE Stomatitis, Grade (Patient 4, 200 mg QD, onset day 79, Not related): 3 | SAE Malignant pleural effusion, Grade (Patient 5, 250 mg BID, onset day 10): 3 | SAE Cardiac arrest, Grade (Patient 5, 250 mg BID, onset day 26, Not related): 5 | SAE Embolism, Grade (Patient 6, 360 mg QD, onset day 54, Unlikely related): 3 | SAE Hypoglycemia, Grade (Patient 7, 500 mg QD, onset day 49, Not related): 4 | SAE Acute kidney injury, Grade (Patient 8, 100 mg QD, onset day 118, Not related): 3 | TEAE Alanine aminotransferase increased (Total (N=78)): 8 n | TEAE Arthralgia (Total (N=78)): 14 n | TEAE Aspartate aminotransferase increased (Total (N=78)): 11 n | TEAE Back pain (Total (N=78)): 13 n | TEAE Constipation (Total (N=78)): 24 n | TEAE Decreased appetite (Total (N=78)): 12 n | TEAE Diarrhea (Total (N=78)): 13 n | TEAE Dizziness (Total (N=78)): 8 n | TEAE Fatigue (Total (N=78)): 26 n | TEAE Headache (Total (N=78)): 13 n | TEAE Hot flush (Total (N=78)): 11 n | TEAE Hyperglycemia (Total (N=78)): 10 n | TEAE Insomnia (Total (N=78)): 9 n | TEAE Nausea (Total (N=78)): 26 n | TEAE Pain in extremity (Total (N=78)): 10 n | TEAE Vomiting (Total (N=78)): 14 n | TRAE Arthralgia (Total (N=78)): 8 n | TRAE Constipation (Total (N=78)): 10 n | TRAE Decreased appetite (Total (N=78)): 8 n | TRAE Fatigue (Total (N=78)): 17 n | TRAE Hot flush (Total (N=78)): 8 n | TRAE Nausea (Total (N=78)): 20 n | TRAE Vomiting (Total (N=78)): 8 n | Grade 4 or Grade 5 TRAEs (cut-off 6 Jun 2022): no Grade 4 or Grade 5 TRAEs | patients reporting SAEs (cut-off 6 Jun 2022): 8 of 78 patients | total SAEs (cut-off 6 Jun 2022): 11 SAEs | Grade 1 TEAEs (cut-off 6 Jun 2022, N=78): 34.6% | Grade 1 TRAEs (cut-off 6 Jun 2022, N=78): 42.3% | Grade 2 TEAEs (cut-off 6 Jun 2022, N=78): 39.7% | Grade 2 TRAEs (cut-off 6 Jun 2022, N=78): 21.8% | Grade 3 TEAEs (cut-off 6 Jun 2022, N=78): 11.5% | Grade 3 hypertension (cut-off 6 Jun 2022, N=78): 2 patients | Grade 4 TEAEs (cut-off 6 Jun 2022, N=78): 3.8% | Grade 5 TEAE (cut-off 6 Jun 2022, N=78): 1.3% | TEAE of Grade ≥3 (cut-off 6 Jun 2022, N=78): 16.7% | patients with Grade 3 TRAEs (cut-off 6 Jun 2022, N=78): 5.1% | patients with at least 1 TEAE (cut-off 6 Jun 2022, N=78): 91.0% | patients with at least 1 TRAE (cut-off 6 Jun 2022, N=78): 69.2% | TEAE leading to discontinuation (five of 83 patients): 6.0%
